In patent US5492924A, “Phorbine derivatives and their use in the diagnosis and therapy of cancer” (Fox Chase Cancer Center, priority 1993, dated 1996):

What was measured:
EMT-6 mouse tumor cells [1] = assay: Photosensitizing effectiveness with EMT-6 tumor cells in vitro (photoinactivation); format: cell-based; settings: for Photoinactivation rate (1/D50): 670 nm (pheophorbide) or 750 nm (bacteriopheophorbide), one hour exposure
Description: EMT-6 mouse tumor cells were exposed in slowly-stirred suspension cultures to various concentrations of Ph6-OH, Ph4-OH and BPh4-OH for one hour prior to illumination with graded light doses of specific wavelength. The pheophorbide and bacteriopheophorbide compounds were illuminated with 670 and 750 nm light, respectively. Illuminated cell populations were plated into Petri dishes containing appropriate media for colony forming assays. The surviving fraction (SF) of cells after various PDT treatments was computed from the ratio, [plating efficiency (treated cells)]/[plating efficiency (control cells)]. For each photosensitizer dosage investigated,survival curves of log SF versus light dose were constructed and analyzed. The light dose required to kill 50%, 90% and 99% of tumor cell populations (D50, D10 and D01) were determined. The reciprocal of light dose required to kill 50% of a tumor cell population (1/D50) was used as a photoinactivation rate for each concentration and as a basis for comparison of photosensitizer efficacy. Inactivation rates for the various photosensitizing agents activated with 630 (Photofrin® ), 670 (Ph6-OH) and 750 (BPh4-OH) nm light are shown in the accompanying Figure. Rates of photoinactivation and relative effectiveness of the pheophorbide and bacteriopheophorbide compounds compared to Photofrin®are given in Table C. The inactivation rate for Photofrin® was extrapolated from data generated at much higher drug concentrations utilizing the same experimental protocol. The relative effectiveness of Ph4-OH and BPh4-OH are approximately 800X and approximately 1150X, respectively.
For each concentration of photosensitizer compound studied, there was a threshold dose of light below which little or no cell killing occurred. […] For example, for PH6-OH at 0.1, 0.3 and 0.5 μM, the threshold light dose was 0.75, 0.18 and 0.08J/cm^2, respectively.

EMT-6 tumors = assay: EMT-6 tumor regrowth assay after PDT; format: in vivo, C.B17/Icr scid mice; settings: for Regrowth time (time to grow to two times the treatment volume): 300J of 670 nm one hr after administration
Description: (§1) Photosensitizer efficacy was measured with two different tumor models. Solid EMT-6 tumors (~0.1 cm^3) growing on the backs of C.B17/Icr scid mice were exposed to 300J of 670 nm light one hour after the iv administration of Ph4-OH. Light was generated by a laser, transported to the tumor-bearing mouse via an optical fiber and focused onto the tumor surface through a diffusing lens. The light dose rate at the tumor surface was 200-400 mW/cm^2 and the field size encompassed the tumor cross section. […] EMT-6 tumor response was quantified by two different assays. At various times after PDT treatment, animals were sacrified, tumors were removed in toto from the animal and mechanically disrupted. Tumor cells were released by an enzyme digestion procedure. Released tumor cells were plated into Petri dishes for colony forming assays.
Tumor response to PDT was also quantified by tumor regrowth assay. The volumes of both untreated and PDT-treated tumors in animals were estimated from caliper measurements made three times a week. Tumor response in vivo was characterized by acute inflammatory reaction observed on days 1 and 2 after treatment followed by tumor volume shrinkage and eventual cure or regrowth. These responses from individual tumors were quantified in days after treatment required for tumors to reach two times their treatment volume. […] Tumor response is a function of photosensitizer dosage. […] In this assay, some tumor cures are consistently observed when growth delay times are 15 days and greater.
TIME FOR EMT-6 TUMORS TO GROW TO TWO
TIMES THE TREATMENT VOLUME AFTER 300J
OF 670 NM DELIVERED ONE HR AFTER I.V.
PHOTOSENSITIZER ADMINISTRATION

[2] = test system: Dunning prostate carcinomas (R3327-AT); assay: Tumor response and cure of Dunning prostate carcinomas after PDT; format: in vivo, Fischer X Copenhagen rats
From the text: Tumor response and cure was also investigated with 4-5 cm^3 Dunning prostate carcinomas (R3327-AT) growing in Fischer X Copenhagen rats. These tumors were illuminated by laser light delivered by a laterally-diffusing optical fiber applicator which contained seven fibers in an hexagonal array of equilateral triangles with 0.9 cm spacing.

[3] = test system: UNA mouse endothelial cells; assay: Photosensitizer drug uptake into UNA endothelial cells; format: cell-based
Description: (§2) EMT-6 mouse tumor and UNA mouse endothelial cells were exposed to various concentrations of the photosensitizer compounds of the invention in slowly-stirred suspension cultures. […] Cells were lysed and solubilized by mixing 1 mL of cell suspension with 1 mL 4% Triton X-100. After 2 hours of extraction, samples were mixed with 2 mL 95% EtOH and photosensitizer levels quantified by spectrofluorometry using Eex =400 nm and Eem =670 nm. […] For both cell lines, uptake is dependent upon photosensitizer concentration in the media and the larger volume tumor cells show the higher rates of uptake. If drug uptake rate is normalized to a standard cell volume, EMT-6 tumor cells bind the photosensitizer at 1.25 times that of UNA endothelial cells.

EMT-6 tumor cells = assay: Plating efficiency (colony forming assay) of EMT-6 tumor cells from tumors treated in vivo by PDT; design: species or system C.B17/Icr scid mice; settings: for Plating efficiency, excision at 24 hr / Plating efficiency, immediate excision: 300J of 670 nm light
Description: as §1
IN VITRO PLATING EFFICIENCIES OF EMT-6
TUMOR CELLS FROM TUMORS TREATED IN VIVO
BY PDT WITH 300J OF 670 NM LIGHT

EMT-6 mouse tumor cells [4] = assay: Photosensitizer drug uptake into EMT-6 tumor cells; format: cell-based; settings: for Initial binding rate: EMT-6
Description: as §2

[5] = .3 μM, compared to Photofrin (= 1)

In the case of CCC1c2cc3[nH]c4c(c3C)C(=O)C(C(=O)OC)c4c3nc(cc4[nH]c(cc(n2)C1C)c(C(C)=O)c4C)C(C)C3CCC(=O)NCCCCO (stereo not shown) [BPh4-OH, 9-Acetyl-14-ethyl-13,14-dihydro-21-(methoxycarbonyl)-4,8,13,18-tetramethyl-20-oxo-N-(4-hydroxybutyl)-3-phorbinepropanamide], the “Photoinactivation rate (1/D50)” value (EMT-6 mouse tumor cells [1]; .3 μM) is reported as 10.4 (J/cm^2)^-1, the Relative effectiveness (EMT-6 mouse tumor cells [1]; [5]) is reported as 1156 and the “Relative effectiveness” value (EMT-6 mouse tumor cells [1]; compared to Photofrin) is reported as “approximately 1150 X”.

With C=Cc1c(C)c2cc3nc(c4c5[nH]c(cc6nc(cc1[nH]2)C(C)=C6CC)c(C)c5C(=O)C4C(=O)OC)C(CCC(=O)NCCCCO)C3C (stereo not shown) [Ph4-OH, 9-Ethenyl-14-ethyl-21-(methoxycarbonyl)-4,8,13,18-tetramethyl-20-oxo-N-(4-hydroxybutyl)-3-phorbinepropanamide] the “Regrowth time (time to grow to two times the treatment volume)” value (from here on “Regrowth time”) (EMT-6 tumors; 0.45 mg/kg i.v.) was 4.3 ± 0.4 days, the “Regrowth time” value (EMT-6 tumors; 0.75 mg/kg i.v.) was 8.6 ± 0.5 days and the “Regrowth time” value (EMT-6 tumors; 1.00 mg/kg i.v.) was 12.4 ± 0.6 days. The “Regrowth time” value (EMT-6 tumors; 1.50 mg/kg i.v.) was over 22.0 days, the “Tumor response (compared with Ph6-OH)” value (EMT-6 tumors; 300J of 670 nm light, in words) was “superior tumor response” and the “Potency relative to Photofrin for equal tumor growth delay” value (EMT-6 tumors; relative to Photofrin, photosensitizer dosage and light dose) was “at least fifty times more potent”. The “Photoinactivation rate (1/D50)” value (EMT-6 mouse tumor cells [1]; .3 μM) was 7.30 (J/cm^2)^-1, the Relative effectiveness (EMT-6 mouse tumor cells [1]; [5]) was 811 and the “Relative effectiveness” value (EMT-6 mouse tumor cells [1]; compared to Photofrin) was “approximately 800 X”. For the same molecule, the “Tumor necrosis and response” value ([2]; 2 mg/kg iv, 400J of 670 nm light one hour after administration, 4-5 cm^3 tumors) was “Complete tumor necrosis and response”, the “Potency relative to Photofrin for inducing tumor necrosis and cure” value ([2]; relative to Photofrin) was “at least eighty times more potent” and the Initial binding rate ([3]; 0.5 μM) was 0.067 μg/10^6 cells/hr. For the same molecule, the Initial binding rate ([3]; 1.0 μM) was 0.038 μg/10^6 cells/hr, the “Plating efficiency, excision at 24 hr” value (EMT-6 tumor cells; 1 mg/kg iv) was 0.001 ± 0.001 and the “Plating efficiency, immediate excision” value (EMT-6 tumor cells; 1 mg/kg iv) was 0.55 ± 0.07. The “Plating efficiency, excision at 24 hr” value (EMT-6 tumor cells; 2 mg/kg iv) was at most 0.0001, the “Plating efficiency, immediate excision” value (EMT-6 tumor cells; 2 mg/kg iv) was 0.48 ± 0.09 and the “Tumor cell plating efficiency when tumors excised 24 hr after PDT” value (EMT-6 tumor cells; 24 hr after PDT, in words) was “decreased dramatically in proportion to photosensitizer concentration and light dose”. For the same molecule, the “Tumor cell killing when tumors excised immediately after PDT” value (EMT-6 tumor cells; immediately after PDT, in words) was “little or no killing observed”, the “Potency relative to Photofrin for producing same extent of tumor cell kill in vivo” value (EMT-6 tumor cells; relative to Photofrin, photosensitizer and light doses) was “at least fifty times more potent” and the Initial binding rate (EMT-6 mouse tumor cells [4]; 0.5 μM) was 0.097 μg/10^6 cells/hr. The Initial binding rate (EMT-6 mouse tumor cells [4]; 1.0 μM) was 0.068 μg/10^6 cells/hr and the “Uptake rate normalized to standard cell volume, EMT-6 tumor cells relative to UNA endothelial cells” value (EMT-6 mouse tumor cells [4]; ratio EMT-6/UNA) was 1.25 times.

With C=Cc1c(C)c2cc3nc(c4c5[nH]c(cc6nc(cc1[nH]2)C(C)=C6CC)c(C)c5C(=O)C4C(=O)OC)C(CCC(=O)NCCCCCCO)C3C (stereo not shown) [Ph6-OH, 9-Ethenyl-14-ethyl-21-(methoxycarbonyl)-4,8,13,18-tetramethyl-20-oxo-N-(6-hydroxyhexyl)-3-phorbinepropanamide] the “Regrowth time” value (EMT-6 tumors; 0.60 mg/kg i.v.) was 4.7 ± 0.7 days, the “Regrowth time” value (EMT-6 tumors; 1.00 mg/kg i.v.) was 7.9 ± 1.3 days and the “Regrowth time” value (EMT-6 tumors; 3.00 mg/kg i.v.) was 25.5 ± 2.9 days. For the same molecule, the “Threshold light dose below which little or no cell killing occurred” value (EMT-6 mouse tumor cells [1]; 0.1 μM) was 0.75 J/cm^2, the “Threshold light dose below which little or no cell killing occurred” value (EMT-6 mouse tumor cells [1]; 0.3 μM) was 0.18 J/cm^2 and the “Threshold light dose below which little or no cell killing occurred” value (EMT-6 mouse tumor cells [1]; 0.5 μM) was 0.08 J/cm^2. The “Photoinactivation rate (1/D50)” value (EMT-6 mouse tumor cells [1]; .3 μM) was 5.10 (J/cm^2)^-1 and the Relative effectiveness (EMT-6 mouse tumor cells [1]; [5]) was 567.
